The values below come from ChEMBL document CHEMBL1138746, “Indolebutylamines as selective 5-HT(1A) agonists” (J Med Chem, 2004).

pIC50: −log10 of the molar value.

Experiment [1] addresses T1, Adrenergic receptor alpha-2 (Homo sapiens, UniProt P08913+P18825+P18089).
T1 sequence (P08913 whole entry): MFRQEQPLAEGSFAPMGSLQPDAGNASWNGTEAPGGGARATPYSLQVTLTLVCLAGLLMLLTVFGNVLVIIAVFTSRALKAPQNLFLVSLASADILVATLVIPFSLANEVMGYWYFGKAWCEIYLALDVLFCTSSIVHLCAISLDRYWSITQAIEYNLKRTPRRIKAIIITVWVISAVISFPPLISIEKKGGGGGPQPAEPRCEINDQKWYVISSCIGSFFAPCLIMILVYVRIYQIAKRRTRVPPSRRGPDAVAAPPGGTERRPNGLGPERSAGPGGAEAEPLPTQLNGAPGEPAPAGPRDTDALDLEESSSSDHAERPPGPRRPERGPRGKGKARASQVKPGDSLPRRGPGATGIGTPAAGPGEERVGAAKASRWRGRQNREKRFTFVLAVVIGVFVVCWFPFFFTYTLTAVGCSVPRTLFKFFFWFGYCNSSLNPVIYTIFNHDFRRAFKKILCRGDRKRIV
T1 sequence (P18825 whole entry): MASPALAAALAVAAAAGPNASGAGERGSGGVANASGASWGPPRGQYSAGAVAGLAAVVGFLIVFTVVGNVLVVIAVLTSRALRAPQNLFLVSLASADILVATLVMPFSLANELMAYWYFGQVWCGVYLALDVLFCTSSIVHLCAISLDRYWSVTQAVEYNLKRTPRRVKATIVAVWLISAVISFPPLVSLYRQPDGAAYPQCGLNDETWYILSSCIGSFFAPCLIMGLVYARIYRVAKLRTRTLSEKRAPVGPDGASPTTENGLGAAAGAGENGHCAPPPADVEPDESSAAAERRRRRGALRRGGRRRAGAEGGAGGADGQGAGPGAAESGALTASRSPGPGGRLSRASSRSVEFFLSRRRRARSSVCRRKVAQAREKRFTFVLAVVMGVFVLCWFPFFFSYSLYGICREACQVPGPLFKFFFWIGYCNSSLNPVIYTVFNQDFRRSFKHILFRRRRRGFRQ
T1 sequence (P18089 whole entry): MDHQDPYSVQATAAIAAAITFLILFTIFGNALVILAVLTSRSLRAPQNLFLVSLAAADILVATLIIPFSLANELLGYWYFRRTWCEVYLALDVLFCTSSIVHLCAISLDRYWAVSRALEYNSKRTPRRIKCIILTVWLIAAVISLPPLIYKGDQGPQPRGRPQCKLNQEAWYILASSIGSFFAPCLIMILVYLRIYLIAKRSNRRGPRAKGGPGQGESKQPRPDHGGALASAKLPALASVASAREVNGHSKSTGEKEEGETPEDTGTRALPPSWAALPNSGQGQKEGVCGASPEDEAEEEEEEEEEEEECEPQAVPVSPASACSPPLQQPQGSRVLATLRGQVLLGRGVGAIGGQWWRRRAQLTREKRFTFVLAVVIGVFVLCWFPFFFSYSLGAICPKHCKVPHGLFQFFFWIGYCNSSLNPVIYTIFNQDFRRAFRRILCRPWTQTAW
Description: Inhibition of Alpha-2 adrenergic receptor. In kind it is protein assay.

The target in the next experiment is D(3) dopamine receptor (Homo sapiens, UniProt P35462). Description: Inhibition of dopamine D3 receptor.
D(3) dopamine receptor, sequence (P35462 whole entry): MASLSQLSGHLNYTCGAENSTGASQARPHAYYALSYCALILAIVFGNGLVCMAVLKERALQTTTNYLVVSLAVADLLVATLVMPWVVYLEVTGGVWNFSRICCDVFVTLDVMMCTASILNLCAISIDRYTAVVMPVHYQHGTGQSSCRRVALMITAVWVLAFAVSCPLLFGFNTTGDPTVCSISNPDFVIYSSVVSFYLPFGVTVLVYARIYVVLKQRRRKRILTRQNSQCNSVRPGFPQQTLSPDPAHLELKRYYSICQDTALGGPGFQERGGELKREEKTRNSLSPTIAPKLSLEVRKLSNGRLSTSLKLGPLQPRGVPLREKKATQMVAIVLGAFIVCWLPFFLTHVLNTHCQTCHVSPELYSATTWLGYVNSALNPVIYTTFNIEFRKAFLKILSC

The IC50 is the midpoint of a concentration-inhibition curve. A lower IC50 goes with greater potency. A word on the pIC50: it is −log10 of the IC50, conventionally taken in molar units. As to `O=C1c2ccccc2S(=O)(=O)N1CCCCN1CCN(c2ncccn2)CC1` [IPSAPIRONE], the IC50 in experiment [1] turned out to be 1000 nM. Further, the pIC50 against D(3) dopamine receptor was 5.92.
